Test results as given in patent US20250064062A1, “METHOD FOR INCREASING THE EFFICACY OF A HERBICIDE” (BASF SE, priority 2021, published 2025).

Legend:
Type in all cases: in vivo
Details in all cases: Dicamba 560 g ae/ha alone; Induce 0.25% v/v
[1] = test system: waterhemp (Amaranthus tuberculatus, AMATA); test: Greenhouse trial: dicamba (Engenia) with copolymer CP1, postemergence weed control
[2] = test system: velvetleaf (Abutilon theophrasti, ABUTH); test: as above
[3] = test system: common lambsquarters (Chenopodium album; OCHEAL); test: as above
[4] = test system: AMATA, ABUTH, CHEAL; test: Greenhouse trial: dicamba with copolymer CP1, mean over the three weed species

Structure (SMILES): COc1c(Cl)ccc(Cl)c1C(=O)O [Dicamba, dicamba]
- % Control (21 Days after Treatment) AMATA [1]: 83%
- % Control (21 Days after Treatment) ABUTH [2]: 53%
- % Control (21 Days after Treatment) CHEAL [3]: 86%
- % Control (21 Days after Treatment) Mean [4]: 74%
